Read-outs that look alike come from different tables or passages of the source. Where a SMILES comes first, the peptide text is derived from it. Bridges are numbered along the chain shown (N, C = ends). [ ]: non-standard residue; d: D form. The star is where a group is joined. BODIPYFLEthylmaleimide = Cc1cc(C)n2c1C=C1C=CC(CCC(=O)NCCN3C(=O)CC(*)C3=O)=[N+]1[B-]2(F)F; Succinimide(1-Et,3-yl) = CCN1C(=O)CC(*)C1=O; S5 = C=CCCC[C@](C)(N)C(=O)O
Experiments:
circular dichroism = conditions: 10 mM sodium phosphate; pH 7; 1 °C; 50 uM
CC2-LZ domain of NEMO = CC2-LZ domain of NEMO (Mus musculus, UniProt O88522); experiment: Fluorescence anisotropy/polarization binding assay
Method: Measurements were performed on a Tecan infinite F500 equipped with polarizing filters and using excitation and emission wavelengths at 485 nm and 535 nm, respectively. Anisotropy data were calculated using the Magellan software version 6.5. Prior experiments, the mouse CC2-LZ was extensively dialyzed in binding buffer containing 20 mM HEPES pH 7.4, 100 mM NaCl, and 0.05% P20 detergent (v/v). All experiments were performed in a 384 well plate (vol 25 μl) at room temperature. The BODIPY®-labeled peptide concentrations were fixed at 0.1 or 10 μM whereas the CC2-LZ concentration varied from 0 to 100 μM. Reference calibrated at 22 mP, was based on the fluorescence of the peptide alone. Each experimental binding curve was determined from at least 10 independent concentration points. The G-factor was calculated as previously described in Agou et al. [7], with a value of 0.75, which was observed constant within 5% upon all titrations. For analysis, the blank value corresponding to the value of buffer alone, was subtracted from all titration data.
All NEMO peptides were conjugated to an extra N-terminal cysteine with the fluorophore BODIPY® or FITC to determine their binding affinity for the CC2-LZ domain of NEMO (also called NOA or UBAN) by fluorescence polarization. For each peptide titration, various concentration of the target ranging from 0 to 100 μM and a fixed concentration of peptide at 0.1 or 10 μM were used at 25° C. […] For these reasons, all further titration experiments were performed with a fixed peptide concentration of 0.1 μM unless otherwise indicated.

NF-κB pathway = NF-κB pathway (Mus musculus, UniProt O88522); experiment: NF-κB inhibition assay, LPS-stimulated 70Z3-C3 lacZ reporter cells; assay type: cell-based; conditions: for IC 50 NF-κB inhibition: 70Z3-C3 cells, 2 h peptide then LPS 4 h, N.I = No inhibition observed
Text: The stable cell line of pre-B lymphocyte 70Z3-C3 cells expressing the lacZ reporter gene under the control of NF-κB was previously described. OCI-Ly3 (ABC-DLBCL, MALT1 dependent) and OCI-Ly7 (GCB-DLBCL). U2932 (ABC-DLBCL, MALT1 independent) were purchased from DSMZ (Deutsche Sammlung von Mikroorganismen and Zellkulturen) and HLY1 (ABC-DLBCL, MALT1 independent). Jurkat T-cells were obtained after transduction of lentiviruses containing a NF-κB reporter luciferase gene as previously described. All cell lines were grown in RPMI 1640 medium supplemented with 10% FBS, 10 μg/ml of streptomycin, 10 U/ml of penicillin and kept at 37° C., in a 5% CO2 humidified incubator. 0.05 mM of β-mercaptoethanol was added for 70Z3-C3. Primary and secondary antibodies were as following: polyclonal rabbit anti NF-κB p65, (sc-372, Santa Cruz Biotechnology, Inc) Alexa-488 coupled goat anti-rabbit IgG1 (Invitrogen) NF-κB inhibition assay was almost similar to those previously described in [1], except that luminescence data were monitored with a Centro XS^3, LB960 luminometer (Berthold technologies.), which is more sensitive. All experiments were performed in duplicates in 96-well plates. […] After 4 h incubation, cells were centrifuged 7 min at 400×g, at 4° C.

[1] = system: OCI-Ly3 (ABC-DLBCL, MALT1 dependent); experiment: Cell death assay (CellTiter-Blue resazurin); assay type: cell-based, human; conditions: OCI-Ly3, 48 h
Method: The CellTiter-Blue® Cell Viability kit assay purchased from Promega was used to assess the cell death induced by NEMO stapled peptides in ABC- and GCB-DLBCL cell lines. […] Cells were considered 100% death when the fluorescence intensity value was the same as the one with the medium alone or with the cells treated with the cycloheximide protein synthesis inhibitor at 25 μM (Sigma Aldrich).
For each time point measurement 100 μl of cell samples were withdrawn at different incubation times (7 h, 24 h and 48 h) and subjected to resazurin assay for one hour at 37° C. in the CO2 incubator by adding and mixing for 10 sec 20 μl of resazurin. Fluorescence measurements were performed with a TECAN infinite F500 instrument at 560 nm excitation wavelength and 590 nm emission wavelength. Viability of cells at time 0 was determined just before adding compound and all experiments were performed in duplicate.
The percentage of cell death was calculated according to the following formula: (1−((RFUobs−blank)/(RFU100% viability−blank))*100), where RFUobs corresponds to the cells viability observed in the presence of compound, RFU100% viability, the initial cells viability and blank the background fluorescence measured using the medium alone.
The EC50 value was calculated by plotting the percentage of cell death as function of the compound concentration and fitting the experimental curve with the following formula: (A*P0)/(EC50+P0), where A is the amplitude of fluorescence, P0 is the peptide concentration.
To compare the inhibition efficiency of BA-UBI-SAHND306-Q313 with IKK inhibitors (MLN120B, MedChem Express) or IKKα/β inhibitor (TPCA1, R&D systems), 25,000 DLBCL cells (OCI-Ly3) were incubated for 7 h with an increasing concentration of IKK inhibitors ranging from 0 to 50 μM, and the amount of cell death was then determined using CellTiter-Blue® Cell Viability kit assay. For the MI-2 MALT1 inhibitor (Fontan et al., 2012, Cancer cell 22, 812-824), similar experiments were carried out in MALT dependent (OCI-Ly3) and independent (HLY1) DLBCL cells using a 0-25 μM range.

70Z3-C3 cells = experiment: Cellular uptake of BODIPY-labeled peptides by FACS; assay type: cell-based; conditions: 10 μM labeled peptide, 2 h, 37° C.
Method: 2.2×10^5 cells in 100 μl of 70Z3-C3 were incubated with either 10 μM or with various doses of 10 μM, 5 μM and 1 μM of labeled-peptides at 37° C., 5% CO2. Similarly to fluorescence microscopy experiments, cells alone or incubated with BODIPY®-labeled BSA (ref) or BODIPY®-UBI devoid of the antennapedia cell penetrating sequence were used as negative control, whereas cells with BA-UBI [1] at 10 μM were used as positive control. After 2 h incubation, cells were washed 4 times with PBS at room temperature, and finally diluted 1:3 in PBS before subjected to FACS analysis. Along with the BODIPY® fluorophore the fluorescence intensity was recorded at 525±25 nm using the Gallios Flow cytometer (Beckman Coulter) to analyse each cells sample. Each internalization peptide was assessed by gating a population of 15,000 events and the data were analysed using Kaluza software version 1.2.
For determination of cellular uptake by flow cytometry, the BA-UBI-SAHND306-Q313 stapled peptide was first incubated with 2.2×10^5 70Z3-C3 cells in […] either at 4° C. or 37° C. for 2 h. Bodipy-labeled BSA, bodipy alone and bodipy-UBI were used as negative controls to verify the washing quality and efficient removal of any non-specific binding at the cell surface before FACS analysis. […] After 2 h of incubation, cells were washed four times with PBS at room temperature and diluted at 1:3 in PBS for FACS analysis. Samples were analyzed as previously described in the European patent (No: 15307137.8).

[2] = Temperature-induced denaturation followed by CD; assay type: physicochemical; conditions: 30 μM or 300 μM, ΔCp ≈ 0; for Tm: thermal denaturation by CD; for ΔH: van't Hoff enthalpy change at Tm
[3] = CD spectroscopy, α-helical content; assay type: physicochemical; conditions: 50 μM peptide, phosphate buffer pH 7.0, UBI in TFE taken as 100%
[4] = fixed peptide concentration 10 μM

Sequence of NF-κB pathway (O88522 whole entry): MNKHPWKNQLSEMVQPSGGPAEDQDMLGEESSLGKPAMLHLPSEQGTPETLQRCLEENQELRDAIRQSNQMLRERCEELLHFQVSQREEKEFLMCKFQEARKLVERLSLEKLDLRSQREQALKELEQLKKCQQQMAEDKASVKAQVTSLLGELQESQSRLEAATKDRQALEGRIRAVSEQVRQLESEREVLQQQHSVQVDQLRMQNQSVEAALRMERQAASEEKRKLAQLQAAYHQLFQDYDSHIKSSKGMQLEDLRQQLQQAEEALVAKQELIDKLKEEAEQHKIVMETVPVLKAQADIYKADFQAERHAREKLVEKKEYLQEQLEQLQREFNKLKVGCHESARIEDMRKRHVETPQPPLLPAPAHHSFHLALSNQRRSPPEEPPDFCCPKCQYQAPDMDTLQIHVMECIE
Sequence of CC2-LZ domain of NEMO (O88522 242-343 limits assumed): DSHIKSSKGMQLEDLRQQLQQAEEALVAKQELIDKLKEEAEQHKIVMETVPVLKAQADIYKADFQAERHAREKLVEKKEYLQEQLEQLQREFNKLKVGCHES

SMILES	helicity (circular dichroism) [rel %]	IC 50 NF-κB inhibition (NF-κB pathway)	Binding affinity (FP) at 10 μM (CC2-LZ domain of NEMO; [4])	FACS peak median, first or only peak (70Z3-C3 cells)	ΔS [2] [cal. mol^−1.K^−1]	Tm [2] [C°]	ΔH [2] [kcal/mol]	α-helical content at 1° C. [3] [%]	also measured
CC[C@H](C)[C@H](NC(=O)[C@H](CC(=O)O)NC(=O)[C@H](C)NC(=O)[C@H](CCC(N)=O)NC(=O)[C@H](C)NC(=O)[C@H](CCCCN)NC(=O)[C@H](CC(C)C)NC(=O)[C@H](CSC1CC(=O)N(CC)C1=O)NC(C)=O)C(=O)N[C@@H](Cc1ccc(O)cc1)C(=O)N[C@@H](CCCCN)C(=O)N[C@@H](C)C(=O)N[C@@H](CCCNC(=N)N)C(=O)N[C@@H](Cc1ccccc1)C(=O)N[C@@H](CCC(N)=O)C(=O)N[C@@H](C)C(=O)N[C@@H](CCC(=O)O)C(=O)N[C@@H](CCCNC(=N)N)C(=O)N[C@@H](Cc1c[nH]cn1)C(=O)N[C@@H](C)C(=O)N[C@@H](CCCNC(=N)N)C(=O)N[C@@H](CCC(=O)O)C(=O)N[C@@H](CCCCN)C(N)=O (some centres unmarked) (Ac-C(Succinimide(1-Et,3-yl))LKAQADIYKARFQAERHAREK-NH2)	42	–	–	–	–	–	–	–	–
CC[C@H](C)[C@H](NC(=O)[C@H](CC(=O)O)NC(=O)[C@H](C)NC(=O)[C@H](CCC(N)=O)NC(=O)[C@H](C)NC(=O)[C@H](CCCCN)NC(=O)[C@H](CC(C)C)NC(=O)[C@H](CSC1CC(=O)N(CC)C1=O)NC(C)=O)C(=O)N[C@@H](Cc1ccc(O)cc1)C(=O)N[C@@H](CCCCN)C(=O)N[C@@]1(C)CCCC=CCCC[C@@](C)(C(=O)N[C@@H](CCC(=O)O)C(=O)N[C@@H](CCCNC(=N)N)C(=O)N[C@@H](Cc2c[nH]cn2)C(=O)N[C@@H](C)C(=O)N[C@@H](CCCNC(=N)N)C(=O)N[C@@H](CCC(=O)O)C(=O)N[C@@H](CCCCN)C(N)=O)NC(=O)[C@H](CCC(N)=O)NC(=O)[C@H](Cc2ccccc2)NC(=O)[C@H](CCCNC(=N)N)NC1=O (some centres unmarked) (Ac-C(Succinimide(1-Et,3-yl))LKAQADIYK[S5]RFQ[S5]ERHAREK-NH2; staple 11-15)	65	–	–	–	–	–	–	–	–
CC(=O)N[C@@H](CSC1CC(=O)N(CCNC(=O)CCC2=[N+]3C(=Cc4c(C)cc(C)n4[B-]3(F)F)C=C2)C1=O)C(=O)N[C@@H](CCC(=O)O)C(=O)N[C@@H](CC(C)C)C(=O)N[C@@H](C)C(=O)N[C@@H](CCC(N)=O)C(=O)N[C@@H](CC(C)C)C(=O)N[C@@H](CCC(N)=O)C(=O)N[C@@H](C)C(=O)N[C@@H](CCC(=O)O)C(=O)N[C@@H](CC(C)C)C(=O)N[C@@H](CC(=O)O)C(=O)N[C@]1(C)CCCCCCC=CCCC[C@@](C)(C(=O)N[C@@H](CC(=O)O)C(=O)N[C@@H](CCCCN)C(=O)N[C@@H](CCC(N)=O)C(=O)N[C@@H](CCC(=O)O)C(=O)N[C@@H](CC(C)C)C(=O)N[C@@H](CCCNC(=N)N)C(=O)N[C@@H](CCCCN)C(=O)N[C@@H](CC(C)C)C(N)=O)NC(=O)[C@H](CCC(N)=O)NC(=O)[C@H](C(C)C)NC(=O)[C@H](C(C)C)NC(=O)[C@H](C)NC(=O)[C@H](CCC(N)=O)NC(=O)[C@H](C(C)C)NC1=O (single isomer, unassigned) [Co-SAHN I307-A314, ELAQLQAELDXVQAVVQXDKQELRKL, reference compound]	–	N.I*	–	–	–	–	–	–	binding to CC2-LZ, in words (CC2-LZ domain of NEMO): does not interact; Kd (CC2-LZ domain of NEMO; fixed peptide concentration 10 μM, read-out: Binding affinity (FP) at 10 μM): > 10000 µM; NF-κB inhibition activity, in words (NF-κB pathway; LPS-induced NF-κB activation): does not inhibit; cell death [1]: no effect of cell death
CC(=O)N[C@@H](CSC1CC(=O)N(CCNC(=O)CCC2=[N+]3C(=Cc4c(C)cc(C)n4[B-]3(F)F)C=C2)C1=O)C(=O)N[C@@H](CC(C)C)C(=O)N[C@@H](CCCCN)C(=O)N[C@@]1(C)CCCC=CCCC[C@@](C)(C(=O)N[C@@H](Cc2ccc(O)cc2)C(=O)N[C@@H](CCCCN)C(=O)N[C@@H](C)C(=O)N[C@@H](CCCNC(=N)N)C(=O)N[C@@H](Cc2ccccc2)C(=O)N[C@@H](CCC(N)=O)C(=O)N[C@@H](C)C(=O)N[C@@H](CCC(=O)O)C(=O)N[C@@H](CCCNC(=N)N)C(=O)N[C@@H](Cc2c[nH]cn2)C(=O)N[C@@H](C)C(=O)N[C@@H](CCCNC(=N)N)C(=O)N[C@@H](CCC(=O)O)C(=O)N[C@@H](CCCCN)C(N)=O)NC(=O)[C@H](CC(=O)O)NC(=O)[C@H](C)NC(=O)[C@H](CCC(N)=O)NC1=O (some centres unmarked) [UBI-SAHN A303-I307] (Ac-C(BODIPYFLEthylmaleimide)LK[S5]QAD[S5]YKARFQAERHAREK-NH2; staple 4-8)	–	N.I*	Very weak	10	−24	19 ± 0.3	-6.9	70	Kd (CC2-LZ domain of NEMO; fixed peptide concentration 0.1 μM, read-out: Binding affinity (FP) at 0.1 μM): ~360 µM
CC[C@H](C)[C@@H]1NC(=O)[C@@](C)(NC(=O)[C@H](C)NC(=O)[C@H](CCC(N)=O)NC(=O)[C@H](C)NC(=O)[C@H](CCCCN)NC(=O)[C@H](CC(C)C)NC(=O)[C@H](CSC2CC(=O)N(CCNC(=O)CCC3=[N+]4C(=Cc5c(C)cc(C)n5[B-]4(F)F)C=C3)C2=O)NC(C)=O)CCCC=CCCC[C@@](C)(C(=O)N[C@@H](CCCNC(=N)N)C(=O)N[C@@H](Cc2ccccc2)C(=O)N[C@@H](CCC(N)=O)C(=O)N[C@@H](C)C(=O)N[C@@H](CCC(=O)O)C(=O)N[C@@H](CCCNC(=N)N)C(=O)N[C@@H](Cc2c[nH]cn2)C(=O)N[C@@H](C)C(=O)N[C@@H](CCCNC(=N)N)C(=O)N[C@@H](CCC(=O)O)C(=O)N[C@@H](CCCCN)C(N)=O)NC(=O)[C@H](CCCCN)NC(=O)[C@H](Cc2ccc(O)cc2)NC1=O (some centres unmarked) [UBI-SAHN D306-A310] (Ac-C(BODIPYFLEthylmaleimide)LKAQA[S5]IYK[S5]RFQAERHAREK-NH2; staple 7-11)	–	N.I*	Not detectable	1	−20	20 ± 0.3	-5.79	65	FACS peak median, second peak (70Z3-C3 cells): 35

From patent publication US11884708B2, “Stapled peptide inhibitors of nemo as potential anti-inflammatory and anti-cancer drugs” (INSTITUT PASTEUR, priority 2015, dated 2024)
